{"source": "patent US20230340498A1", "about": "“COMPOSITIONS AND METHODS FOR INDUCIBLE ALTERNATIVE SPLICING REGULATION OF GENE EXPRESSION” (The Children's Hospital of Philadelphia, priority 2020, published 2023)", "key": {"[1]": {"test_system": "SMN2 exon 7", "assay": "SMN2-on cassette exon 7 splicing assay (RT-PCR) in transfected HEK293 cells", "format": "cell-based, Human", "conditions": "LMI070 compared with RG7800", "description": "Cell culture, transfection, and LMI070/RG7800 treatment. Human embryonic kidney (HEK293) cells (obtained from CHOP Research Vector Core stock) were maintained in DMEM media containing 10% Fetal Bovine Serum (FBS), 1% L-Glutamine and 1% penicillin/streptomycin at 37° C. with 5% CO2. Cells were cultured in 24 well plates and transfected at 80-90% confluence using Lipofectamine 2000 transfection reagent, according to the manufacturer’s protocol. For all experiments, 4 hours after plasmid transfection, cells were treated with LMI070 (MedChemExpress, HY-19620, suspended in DMSO) or RG7800 (MedChemExpress, HY-101792A, suspended in H2O) at the indicated concentrations. Cells were tested for mycoplasma by Research Vector Core. […]\nRNA extraction, RT-PCR, and Splicing assays. […] To determine HTT expression levels after transfection, RNA samples were quantified by spectrophotometry and subsequently cDNAs generated from […] of total RNA with random hexamers (TaqMan RT reagents, Applied Biosystems). […] Relative HTT gene expression was determined using the ddCt method. […] Splicing was determined by PCR using the Phusion High-Fidelity polymerase (Thermofisher) and PCR products separated on a 2.5% agarose gel pre-stained with EtBr and spliced-in and spliced-out band densitometry performed using with the ChemiDoc Imaging System (BioRad) and Image Lab analysis software. […]"}, "[2]": {"test_system": "SMN2-on minigene", "assay": "SMN2-on cassette Firefly luciferase reporter assay in transfected HEK293 cells", "format": "cell-based, Human", "description": "(§1) Cell culture, transfection, and LMI070/RG7800 treatment. Human embryonic kidney (HEK293) cells (obtained from CHOP Research Vector Core stock) were maintained in DMEM media containing 10% Fetal Bovine Serum (FBS), 1% L-Glutamine and 1% penicillin/streptomycin at 37° C. with 5% CO2. Cells were cultured in 24 well plates and transfected at 80-90% confluence using Lipofectamine 2000 transfection reagent, according to the manufacturer’s protocol. For all experiments, 4 hours after plasmid transfection, cells were treated with LMI070 (MedChemExpress, HY-19620, suspended in DMSO) or RG7800 (MedChemExpress, HY-101792A, suspended in H2O) at the indicated concentrations. Cells were tested for mycoplasma by Research Vector Core. None of the cells used in the study were listed in ICLAC database of commonly misidentified cell lines.\nIn vitro luciferase assays. HEK293 cells were cultured in DMEM (10% FBS (v/v), 1% Pen/ Strep (v/v), and 1% L-glutamine (v/v) in a 24-well plate. At 70%-80% confluence, cells were co-transfected with the Xon.Firefly luciferase cassettes (0.3 µg/well) and a SV40p-Renilla luciferase cassette as transfection control (0.02 µg/well). Four hours after transfections cells were treated either with LMI070 or RG7800 at indicated concentrations. At 24 h after transfection, cells were rinsed with ice-cold PBS and Renilla and Firefly luciferase activities were assessed using the Dual-Luciferase Reporter Assay System (Promega) according to the manufacturer’s instructions. Luminescent readouts were obtained with a Monolight 3010 luminometer (Pharmigen). Relative light units (RLUs) were calculated as the quotient of […] RLUs and results expressed relative to mock treated control cells.\nFor this, SMN2-on cassettes were generated to provide drug-induced reporter gene expression. HEK293 cells were transfected with the SMN2-on expression cassettes and luciferase activity evaluated in response to varying doses of LMI070 or RG7800. […]"}, "[3]": {"test_system": "SF3B3-on-eGFP cassette", "assay": "SF3B3-on-eGFP cassette expression in HEK293 cells", "format": "cell-based, Human", "conditions": "LMI070 vs DMSO", "description": "as §1\nNext, a series of switch-on cassettes were developed from the top 4 LMI070-responsive exons found in the RNA-Seq dataset. […] HEK293 cells were transfected with the candidate cassettes, treated with LMI070, and luciferase activity or eGFP expression determined 24 h later. […] Similarly, eGFP expression was only detected in cells transfected with the SF3B3-on-eGFP cassette in response to LMI070 treatment (FIG. 3D)."}, "[4]": {"test_system": "Ai14 reporter genomic locus", "assay": "In vivo AAV8.Xon.SaCas9 editing of Ai14 reporter locus in liver", "conditions": "Ai14 mice, PCR and tdTomato expression", "excerpt": "To assess the applicability of Xon for liver targeted therapies, AAV8.Xon.Epo and AAV8.Xon.SaCas9 vectors were generated and delivered to C57Bl6 and Ai14 reporter mice, respectively (FIGS. 7A, 7C, 7F)."}}, "data": [{"smiles": "CC1(C)CC(Oc2ccc(-c3ccc(-c4cn[nH]c4)cc3O)nn2)CC(C)(C)N1", "note": "[LMI070, 5-(1H-Pyrazol-4-yl)-2-(6-((2,2,6,6-tetramethylpiperidin-4-yl)oxy)pyridazin-3-yl)phenol]", "values": [{"measurement": "relative activity in the setting of the SMN2-on cassette", "setting": "[1]", "result": "more active than RG7800"}, {"measurement": "luciferase activity from the SMN2-on minigene", "setting": "[2]; HEK293 cells, varying doses", "result": "induced luciferase activity"}, {"measurement": "overall induction of luciferase, refined SMN2-on switch system", "setting": "[2]; indSMN2 cassette, relative to DMSO treated cells (FIG. 1E: LMI070 100 nM)", "result": "approximately 20 fold"}, {"measurement": "eGFP expression from SF3B3-on-eGFP cassette", "setting": "[3]", "result": "only detected"}, {"measurement": "editing of the Ai14 reporter genomic locus (liver)", "setting": "[4]", "result": "only observed on mice injected with AAV8.Xon.SaCas9 virus and treated with LMI070"}]}]}
